One series can be described thus: Drug uptake in human skin dermal layer administered topically after 6 hrs by LC-MS/MS analysis. The format is ADME, tissue-based, Dermis. The settings on record: topical_or_ocular.
Take `CC(=O)c1ccc(OCc2cc(C)ccn2)c(-c2ccc3c(c2)CCNCC3)c1`: the Drug uptake was 0.43 µg. On the same count and under the same terms, in the case of `COc1cccc(OCc2cc(C)ccn2)c1-c1ccc2c(c1)CCNCC2` it was 0.38 µg.

A short description of another series: Apparent permeability of the compound after 3 hrs by PAMPA. The format is ADME.
Conditions: not given
On to `COc1ccc(-c2nc(C)ccc2OCc2cc(C)ccn2)cc1`, for which the Papp at 3 h amounted to 33 ×10⁻⁶ cm/s. On the same count and under the same terms, in the case of `Cc1ccnc(COc2ccc(C)nc2-c2ccc3c(c2)CCNCC3)c1` it was 43.5 ×10⁻⁶ cm/s.

The nature of a further series: physchem. The settings on record: buffer, pH 7.4.
`COc1cccc(-c2cc(C(C)=O)ccc2OCc2ccccn2)c1` displayed a logD of 5.4. Same read-out and setting: in the case of `COc1cccc(OCc2cnccn2)c1-c1ccc2c(c1)CCNCC2` it was 2.2; in that of `COc1ccc(-c2cc(C(C)=O)ccc2OCc2ncccn2)cc1`, 4.5. Still for that read-out and setting: in the case of `CC(=O)c1ccc(OCc2ccccn2)c(-c2ccc(CCN)cc2)c1` it was 2.1; in that of `COc1ccc(-c2nc(C)ccc2OCc2ccccn2)cc1`, 5. On the same count and under the same terms, in the case of `COc1ccc(-c2nc(C)ccc2OCc2ccc(C)cn2)cc1` it was 5.5. `COc1ccc(-c2cc(C)ccc2OCc2ccccn2)cc1` showed a logD of 6.8. Same read-out and setting: in the case of `CC(=O)c1ccc(OCc2ccccn2)c(-c2ccc3c(c2)CNCC3)c1` it was 2.2; in that of `COc1ccc(-c2cc(F)ccc2OCc2ccccn2)cc1`, 6.4. On the same count and under the same terms, in the case of `CC(=O)c1ccc(OCc2ccccn2)c(-c2ccc3c(c2)CCNCC3)c1` it was 2.3. Still for that read-out and setting: in the case of `COc1ccc(-c2cc(C(C)=O)ccc2OCc2ccncn2)cc1` it was 4.5; in that of `COc1ccc(OCc2cc(C)ccn2)c(-c2ccc3c(c2)CCNCC3)c1`, 3. The compound `COc1ccc(-c2cc(OC)ccc2OCc2ccccn2)cc1` displayed a logD of 6. The same measure, in the same setting: in the case of `CC(=O)c1ccc(OCc2ccccn2)c(-c2ccc3c(c2)CCNC3)c1` it was 2.1. Still for that read-out and setting: in the case of `COc1ccc(-c2nc(C)ccc2OCc2cc(C)ccn2)cc1` it was 5.4; in that of `CCc1ccnc(COc2ccc(C(C)=O)cc2-c2ccc3c(c2)CCNCC3)c1`, 2.8. Same read-out and setting: in the case of `COc1ccc(-c2cc(C(C)=O)ccc2OCc2ccccn2)cc1` it was 5.3. In the case of `CNC(=O)c1ccc(OCc2cc(C)ccn2)c(-c2ccc3c(c2)CCNCC3)c1`, the logD was found to be 1.9. As for `COc1ccc(-c2ccc(OC)cc2OCc2ccccn2)cc1`, the logD is 6.2. `COc1ccc(-c2ccccc2OCc2ccccn2)cc1` gave a logD of 6.2. The same measure, in the same setting: in the case of `CCOc1ccnc(COc2ccc(C(C)=O)cc2-c2ccc3c(c2)CCNCC3)c1` it was 2.7; in that of `COc1ccc(-c2nc(C)ccc2OCc2cccc(C)n2)cc1`, 5.5.

The compound `Cc1ccc(-c2ncccc2OCc2ccccn2)cc1` returned a logD of 4.9. Same read-out and setting: in the case of `CC(=O)c1ccc(OCc2ccccn2)c(-c2ccc(CN)cc2)c1` it was 1.9; in that of `CC(=O)c1ccc(OCc2cc(C)ccn2)c(-c2ccc3c(c2)CCNCC3)c1`, 2.5. Same read-out and setting: in the case of `CC(=O)c1ccc(OCc2ccccn2)c(-c2cccc(C)c2)c1` it was 6; in that of `COc1ccc(-c2ccc(F)cc2OCc2ccccn2)cc1`, 6.6; in that of `COc1ccc(-c2cc(C(C)=O)ccc2OCc2cnccn2)cc1`, 4.7. On the same count and under the same terms, in the case of `CC(=O)c1ccc(OCc2ccccn2)c(-c2ccc(C)cc2)c1` it was 6.1; in that of `COc1ccc(-c2cc(C(C)=O)ccc2OCc2cccnn2)cc1`, 4.1. Compound `COc1ccc(-c2nc(C)ccc2OCc2ncccc2C)cc1` yielded a logD of 5.3. On the same count and under the same terms, in the case of `COc1ccc(-c2ccc3c(c2)CCNCC3)c(OCc2cc(C)ccn2)c1` it was 3. Same read-out and setting: in the case of `CC(=O)c1ccc(OCc2ccccn2)c(-c2ccc3c(c2)CNCCC3)c1` it was 2.3; in that of `CC(=O)c1ccc(OCc2ccccn2)c(-c2ccc3c(c2)CNC3)c1`, 2.1. Same read-out and setting: in the case of `COc1ccc(-c2c(C)cccc2OCc2ccccn2)cc1` it was 6.7.

For the compound `CC(=O)c1ccc(OCc2ccccn2)c(-c2ccc(F)cc2)c1`, the log distribution coefficient (logD) amounted to 5.6. For `COc1cccc(OCc2cc(C)ccn2)c1-c1ccc2c(c1)CCNCC2`, the logD turned out to be 3.1. For the compound `COc1ccc(-c2c(F)cccc2OCc2ccccn2)cc1`, the logD came to 6.2. On the same count and under the same terms, in the case of `COc1ccc(-c2c(OC)cccc2OCc2ccccn2)cc1` it was 5.8. Still for that read-out and setting: in the case of `CC(=O)c1ccc(OCc2ccccn2)c(-c2ccc3c(c2)CCCNC3)c1` it was 2.3; in that of `Cc1ccnc(COc2ccc(C#N)cc2-c2ccc3c(c2)CCNCC3)c1`, 2.8. `CC(=O)c1ccc(OCc2ccccn2)c(-c2ccccc2)c1`: the logD was found to be 5. Same read-out and setting: in the case of `Cc1ccc(-c2ccccc2OCc2ccccn2)cc1` it was 7.

A further series is described as follows: Drug uptake in human skin epidermal layer administered topically after 6 hrs by LC-MS/MS analysis. It counts as ADME, tissue-based, Skin epidermis. Conditions: topical_or_ocular.
Compound `CC(=O)c1ccc(OCc2cc(C)ccn2)c(-c2ccc3c(c2)CCNCC3)c1` had a Drug uptake of 5.52 µg. The compound `COc1cccc(OCc2cc(C)ccn2)c1-c1ccc2c(c1)CCNCC2` displayed a Drug uptake of 9.34 µg.

The values are drawn from ChEMBL document CHEMBL4265956, “Discovery of potent and selective Spleen Tyrosine Kinase inhibitors for the topical treatment of inflammatory skin disease” (Bioorg Med Chem Lett, 2018).
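For logD in this document: lipophilicity determined by HPLC.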
